Literature values, collected in article PMC10326281, “Insights into the mechanisms governing P01 scorpion toxin effect against U87 glioblastoma cells oncogenesis” (Frontiers in Pharmacology, 2023).
Read-outs that look alike come from different tables or passages of the source. Bridges are numbered along the chain shown (N, C = ends). Where no end group is shown, it is not given here.

Tests used:
U87 cells [1] = conditions: ref Abdullaev et al., 2010; cited from earlier work
Source text: (§1) Besides, it seems that the effect of P01 on U87 cell proliferation is not due only to its blocking activity of SK2 channels, but also by targeting a complex of membrane receptors and/or effectors expressed in U87 cells, including SK2. […] These authors noted that the concentrations necessary for blocking proliferation were higher than those necessary for blocking these ion ...

SK2 channel = conditions: HEK293 cells; ref Hosseini et al., 2001; cited from earlier work
Source text: as §1

hSK1 channel [2] = conditions: ref Shah and Haylett, 2000, cited from earlier work
Source text: This can be explained by the differential expression of either functional SK2 isoforms or other membrane receptors between HEK293 and Jurkat cells.

hSK1 channel [3] = conditions: 2000, cited from earlier work
Source text: (§2) Our team has initiated the fractionation of Aa scorpion venom, in order to identify scorpion peptides targeting potassium channels involved in the oncological process. Thus, we succeeded to isolate one peptide well represented in this venom. Based on its N-terminal sequence and its mass fingerprint this peptide corresponded to the P01 toxin, previously described by ([Zerrouk et al., 1996]).

rSK2 channel = conditions: cited from earlier work
Source text: as §2

Kv1.3 potassium channel = conditions: ref Wang, 2004; cited from earlier work
Source text: (§3) Recently, the anticancer activities of some natural peptides/toxins attracted considerable attention in drug discovery and have been the object of several studies showing that they affect tumor growth, induce apoptosis and inhibit cancer metastasis and angiogenesis in vitro and in vivo ([Ding et al., 2014]; [Majc et al., 2022]). Several examples of the activity of these peptides/toxins as well as their effect on K^+ channels have been recently summarized in many reviews.

[4] = system: endometrial cancer cell lines; conditions: ref Wang, 2004; cited from earlier work
Source text: as §3, with “reviews. Thes ...” for “reviews.”

IKCa/SK4 channel = conditions: ref Wang, 2004; cited from earlier work
Source text: as §3, with “reviews. Thes ...” for “reviews.”

BKCa channel = conditions: ref Wang, 2004; cited from earlier work
Source text: as §3, with “reviews. Thes ...” for “reviews.”

[5] = system: pancreatic cancer cell lines; conditions: ref Wang, 2004; cited from earlier work
Source text: as §3, with “reviews. Thes ...” for “reviews.”

U87 cells [6] = conditions: ref Pyrko et al., 2005, cited from earlier work
Source text: (§4) Thus, P01 and KAaH1 inhibited the U87 cell migration with different mechanisms. […] For instance, PIVL, a Kunitz-type serine protease inhibitor, from the venom of the Tunisian snake Macrovipera lebetina transmediterranea, re ...

integrins = conditions: tumor cell and angiogenic endothelial cell surface; ref Schmitmeier et al., 2005; cited from earlier work
Source text: as §4

For c1ccc2c(c1)c1cc[n+]2CCCCC[n+]2ccc(c3ccccc32)NCCCCCN1 [UCL1848], the “effect on U87 cell proliferation” value (U87 cells [1]) is given as “no effect” and the IC50 (SK2 channel) is given as 0.12 nM.
For “apamin (CNCKAPETALCARRCQQH-NH2; disulfide 1-11, 3-15; ends not checked; UniProt P01500 28-45, looked up)”, the IC50 (hSK1 channel [2]; COS-7 cells) is listed as 12 nM, the IC50 (hSK1 channel [2]; Xenopus oocytes) is listed as 0.1 nM and the IC50 (hSK1 channel [3]; HEK293 cells, ref Shah and Haylett) is listed as 8 nM. The IC50 (hSK1 channel [3]; HEK 293 cells, ref Strobaek et al.) was 3.3 nM and the IC50 (rSK2 channel; HEK 293 cells, ref Strobaek et al., 2000) was 0.083 nM.
In the case of charybdotoxin, the “block of Kv1.3” value (Kv1.3 potassium channel) is listed as “known blocker”, the “proliferation and cell cycle progression” value [4] is listed as “inhibited proliferation and cell cycle progression” and the “block of IKCa/SK4” value (IKCa/SK4 channel) is listed as “known blocker”. For the same molecule, the “block of BKCa” value (BKCa channel) was “known blocker” and the “proliferation and cell cycle progression” value [5] was “inhibited proliferation and cell cycle progression”.
In the case of contortrostatin, the survival (U87 cells [6]; rodent glioma model) is given as “prolongation of survival”, the tumor progression (U87 cells [6]; tumor induced by stereotactic injection of U87 cells) is given as “inhibited the tumor (induced by the stereotactically injection of U87 cells) progression” and the integrin binding (integrins) is given as “specifically binds to certain integrins”.
For “leiurotoxin I: first toxin isolated from Leiurus quintestriatus scorpin (AFCNLRMCQLSCRSLGLLGKCIGDKCECVKH-NH2; disulfide 12-28, 3-21, 8-26; ends not checked; UniProt P16341 1-31, looked up)”, the IC50 (rSK2 channel; HEK293 cells, ref Hosseini et al., 2001) is given as 0.28 nM.
